In PubChem BioAssay (NCI):
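Following 48 hours of exposure in 96-well plates, responses at five concentrations were used to interpolate endpoints linearly. GI50 is the concentration that inhibits growth by half. At the TGI there is no net growth.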

How the values were obtained:
Test in all cases: inhibition of tumour cell growth, NCI panel, 48 h
TK-10 renal = system: TK-10 renal
HOP-92 NSCLC = system: HOP-92 NSCLC
SF-539 CNS = system: SF-539 CNS
OVCAR-3 ovarian = system: OVCAR-3 ovarian
SNB-19 CNS = system: SNB-19 CNS
NCI-H226 lung = system: NCI-H226 lung
NCI-H23 lung = system: NCI-H23 lung
MOLT-4 leukemia = system: MOLT-4 leukemia
SK-MEL-5 melanoma = system: SK-MEL-5 melanoma
SNB-75 CNS = system: SNB-75 CNS

## COC(=O)c1c[nH]cc1CCc1c[nH]cc1C(=O)OC
TK-10 renal
  TGI: > 100 µM
HOP-92 NSCLC
  TGI: > 100 µM
SF-539 CNS
  TGI: > 100 µM
OVCAR-3 ovarian
  TGI: > 100 µM
SNB-19 CNS
  TGI: > 100 µM
NCI-H226 lung
  TGI: > 100 µM
NCI-H23 lung
  TGI: > 100 µM
MOLT-4 leukemia
  TGI: > 100 µM

## CN(C)CCNC(=O)c1ccc(Nc2nc3ccccc3c3occc23)cc1
SK-MEL-5 melanoma
  GI50: 3.96 µM
  TGI: 14 µM
TK-10 renal
  GI50: 1.06 µM
  TGI: 2.54 µM
HOP-92 NSCLC
  GI50: 1.8 µM
  TGI: 9.84 µM
SF-539 CNS
  GI50: 1.83 µM
  TGI: 3.7 µM
OVCAR-3 ovarian
  GI50: 2.4 µM
  TGI: 7.87 µM
SNB-19 CNS
  GI50: 18.8 µM
  TGI: 39 µM
SNB-75 CNS
  GI50: 10.5 µM
  TGI: 25.5 µM
NCI-H23 lung
  GI50: 8.36 µM
  TGI: 21.3 µM
MOLT-4 leukemia
  GI50: 2.75 µM
  TGI: 5.17 µM

## COc1ccc(OCC(=O)O)c2c1CCC(C(C)C)C2=O (stereo not given)
SK-MEL-5 melanoma
  TGI: > 100 µM
TK-10 renal
  TGI: > 100 µM
HOP-92 NSCLC
  TGI: > 100 µM
SF-539 CNS
  TGI: > 100 µM
OVCAR-3 ovarian
  TGI: > 100 µM
SNB-19 CNS
  TGI: > 100 µM
NCI-H23 lung
  TGI: > 100 µM
MOLT-4 leukemia
  TGI: > 100 µM

## CC[C@@H]1C[C@@H]2CN3CCc4c([nH]c5ccc(OC)cc45)C(COC(=O)c4ccc(OC)c(OC)c4)(C2)C13
TK-10 renal
  TGI: 97.2 µM
HOP-92 NSCLC
  TGI: 32.2 µM
SF-539 CNS
  TGI: 55 µM
OVCAR-3 ovarian
  TGI: > 100 µM
SNB-19 CNS
  TGI: > 100 µM
NCI-H226 lung
  TGI: 33.8 µM
SNB-75 CNS
  TGI: > 100 µM
NCI-H23 lung
  TGI: 38.8 µM
MOLT-4 leukemia
  TGI: 62.3 µM

## CCCCCCCCCCCCN1C(C)=CS/C1=C\C=C\c1scc(C)[n+]1CCCCCCCCCCCC
TK-10 renal
  GI50: 0.934 µM
  TGI: 3.9 µM
HOP-92 NSCLC
  GI50: 0.864 µM
  TGI: 3.77 µM
SF-539 CNS
  GI50: 2.02 µM
  TGI: 8.69 µM
OVCAR-3 ovarian
  GI50: 1.24 µM
  TGI: 3.69 µM
SNB-19 CNS
  GI50: 1.91 µM
  TGI: 10.3 µM
NCI-H226 lung
  GI50: 2.34 µM
  TGI: > 100 µM
SNB-75 CNS
  GI50: 1.2 µM
  TGI: 4.96 µM
NCI-H23 lung
  GI50: 0.999 µM
  TGI: 4.99 µM
MOLT-4 leukemia
  GI50: 2.55 µM
  TGI: > 100 µM

## COc1ccc2[nH]cc(CCNC(C)=O)c2c1
SK-MEL-5 melanoma
  TGI: > 100 µM
TK-10 renal
  TGI: > 100 µM
HOP-92 NSCLC
  TGI: > 100 µM
SF-539 CNS
  TGI: > 100 µM
OVCAR-3 ovarian
  TGI: > 100 µM
SNB-19 CNS
  TGI: > 100 µM
SNB-75 CNS
  TGI: > 100 µM
NCI-H23 lung
  TGI: > 100 µM
MOLT-4 leukemia
  TGI: > 100 µM

## COC(=O)C1(C)C=C(Nc2ccccc2)C(=O)N1c1ccccc1 (stereo not given)
SK-MEL-5 melanoma
  TGI: > 100 µM
TK-10 renal
  TGI: > 100 µM
HOP-92 NSCLC
  TGI: > 100 µM
SF-539 CNS
  TGI: > 100 µM
OVCAR-3 ovarian
  TGI: > 100 µM
SNB-19 CNS
  TGI: > 100 µM
NCI-H226 lung
  TGI: > 100 µM
NCI-H23 lung
  TGI: > 100 µM
MOLT-4 leukemia
  TGI: > 100 µM

## COc1ccc(-c2ccc(C3CC(c4ccc(O)cc4)=NN3)o2)c([N+](=O)[O-])c1 (stereo not given)
TK-10 renal
  GI50: 40.1 µM
  TGI: > 100 µM
SF-539 CNS
  GI50: 27.4 µM
  TGI: 97.5 µM
OVCAR-3 ovarian
  GI50: 24.1 µM
  TGI: > 100 µM
SNB-19 CNS
  GI50: 82.6 µM
  TGI: > 100 µM
NCI-H226 lung
  GI50: 36.4 µM
  TGI: > 100 µM
NCI-H23 lung
  GI50: 42.5 µM
  TGI: > 100 µM
MOLT-4 leukemia
  GI50: 5.14 µM
  TGI: 29.9 µM

## CN(C)/[N+]([O-])=N/Oc1cc(Nc2cccc(C(=O)O)c2)c([N+](=O)[O-])cc1[N+](=O)[O-]
SK-MEL-5 melanoma
  GI50: 81.4 µM
  TGI: > 100 µM
TK-10 renal
  GI50: > 100 µM
  TGI: > 100 µM
SF-539 CNS
  GI50: > 100 µM
  TGI: > 100 µM
OVCAR-3 ovarian
  GI50: 5.45 µM
  TGI: 22.7 µM
SNB-19 CNS
  GI50: 53.6 µM
  TGI: > 100 µM
NCI-H226 lung
  GI50: > 100 µM
  TGI: > 100 µM
SNB-75 CNS
  GI50: > 100 µM
  TGI: > 100 µM
NCI-H23 lung
  GI50: 69.5 µM
  TGI: > 100 µM
MOLT-4 leukemia
  GI50: 61.4 µM
  TGI: > 100 µM

## Cn1ncc(=S)[nH]c1=S
TK-10 renal
  TGI: > 100 µM
HOP-92 NSCLC
  TGI: > 100 µM
SF-539 CNS
  TGI: > 100 µM
OVCAR-3 ovarian
  TGI: > 100 µM
SNB-19 CNS
  TGI: > 100 µM
NCI-H226 lung
  TGI: > 100 µM
SNB-75 CNS
  TGI: > 100 µM
NCI-H23 lung
  TGI: > 100 µM
MOLT-4 leukemia
  TGI: > 100 µM

## O=C1NC(=O)C(C(=O)C(=O)Nc2ccc(Br)cc2)C(=O)N1
SK-MEL-5 melanoma
  TGI: > 100 µM
HOP-92 NSCLC
  TGI: > 100 µM
SF-539 CNS
  TGI: > 100 µM
OVCAR-3 ovarian
  TGI: > 100 µM
SNB-19 CNS
  TGI: > 100 µM
NCI-H226 lung
  TGI: > 100 µM
SNB-75 CNS
  TGI: > 100 µM
NCI-H23 lung
  TGI: > 100 µM
MOLT-4 leukemia
  TGI: > 100 µM

## CC(C(=O)N1C(=O)N(C(=O)C(C)C(O)c2ccccc2)C(c2ccccc2)C1c1ccccc1)C(O)c1ccccc1 (stereo not given)
TK-10 renal
  TGI: > 100 µM
HOP-92 NSCLC
  TGI: 40.4 µM
SF-539 CNS
  TGI: 22.6 µM
OVCAR-3 ovarian
  TGI: 31.5 µM
SNB-19 CNS
  TGI: > 100 µM
NCI-H226 lung
  TGI: 34.3 µM
SNB-75 CNS
  TGI: 54.8 µM
NCI-H23 lung
  TGI: > 100 µM
MOLT-4 leukemia
  TGI: 11.9 µM

## Oc1cccc2c1NC1=C(CCC/C1=C\c1ccccc1)C2
SK-MEL-5 melanoma
  TGI: > 100 µM
TK-10 renal
  TGI: > 100 µM
SF-539 CNS
  TGI: > 100 µM
OVCAR-3 ovarian
  TGI: > 100 µM
SNB-19 CNS
  TGI: > 100 µM
NCI-H226 lung
  TGI: > 100 µM
NCI-H23 lung
  TGI: > 100 µM
MOLT-4 leukemia
  TGI: > 100 µM

## CCN(CC)CCn1c(C(C)(C)C)nc2ccccc21
TK-10 renal
  TGI: > 100 µM
HOP-92 NSCLC
  TGI: > 100 µM
SF-539 CNS
  TGI: > 100 µM
OVCAR-3 ovarian
  TGI: > 100 µM
SNB-19 CNS
  TGI: > 100 µM
NCI-H226 lung
  TGI: > 100 µM
SNB-75 CNS
  TGI: > 100 µM
NCI-H23 lung
  TGI: > 100 µM
MOLT-4 leukemia
  TGI: > 100 µM

## Oc1ccc(C(c2ccccc2)(c2ccccc2)c2ccccc2)cc1
SK-MEL-5 melanoma
  GI50: 15.7 µM
  TGI: 32.5 µM
TK-10 renal
  GI50: 36.7 µM
  TGI: 87.4 µM
HOP-92 NSCLC
  GI50: 17.8 µM
  TGI: 34.1 µM
SF-539 CNS
  GI50: 17.6 µM
  TGI: 31.9 µM
OVCAR-3 ovarian
  GI50: 16.6 µM
  TGI: 37.6 µM
SNB-19 CNS
  GI50: 16.8 µM
  TGI: 32.2 µM
NCI-H226 lung
  GI50: 19.4 µM
  TGI: 37.6 µM
NCI-H23 lung
  GI50: 14 µM
  TGI: 28.9 µM
MOLT-4 leukemia
  GI50: 17.8 µM
  TGI: 36.6 µM

## Oc1ccc2ccccc2c1C=NCCCN=Cc1c(O)ccc2ccccc12
SK-MEL-5 melanoma
  GI50: 4.61 µM
  TGI: 16 µM
TK-10 renal
  GI50: 24.4 µM
  TGI: > 100 µM
HOP-92 NSCLC
  GI50: 8.93 µM
  TGI: 59.9 µM
SF-539 CNS
  GI50: 17.8 µM
  TGI: 40.8 µM
OVCAR-3 ovarian
  GI50: 3.31 µM
  TGI: 14.8 µM
SNB-19 CNS
  GI50: 14.7 µM
  TGI: > 100 µM
NCI-H226 lung
  GI50: 0.829 µM
  TGI: 12.9 µM
NCI-H23 lung
  GI50: 3.13 µM
  TGI: 13 µM
MOLT-4 leukemia
  GI50: 10.3 µM
  TGI: 56.9 µM

## CCCCCCCCCCCCCS(=O)(=O)O
SK-MEL-5 melanoma
  TGI: > 100 µM
TK-10 renal
  TGI: > 100 µM
HOP-92 NSCLC
  TGI: > 100 µM
SF-539 CNS
  TGI: > 100 µM
OVCAR-3 ovarian
  TGI: > 100 µM
SNB-19 CNS
  TGI: > 100 µM
NCI-H226 lung
  TGI: > 100 µM
SNB-75 CNS
  TGI: > 100 µM
NCI-H23 lung
  TGI: > 100 µM

## O=C1c2ccccc2-c2c1c1ccccc1c(=O)n2CCCNCCCn1c2c(c3ccccc3c1=O)C(=O)c1ccccc1-2
SK-MEL-5 melanoma
  GI50: 7.21 µM
  TGI: 16.9 µM
TK-10 renal
  GI50: 5.34 µM
  TGI: 18 µM
SF-539 CNS
  GI50: 3.83 µM
  TGI: 13 µM
OVCAR-3 ovarian
  GI50: 5.42 µM
  TGI: 16.5 µM
SNB-19 CNS
  GI50: 6.83 µM
  TGI: > 40.5 µM
NCI-H226 lung
  GI50: 4.42 µM
  TGI: 13.9 µM
SNB-75 CNS
  GI50: 6.1 µM
  TGI: > 50 µM
NCI-H23 lung
  GI50: 10.4 µM
  TGI: > 29.7 µM
MOLT-4 leukemia
  GI50: 0.398 µM

## O=C(Nc1ccc(Cl)c(C(F)(F)F)c1)C(=O)C(C(=O)/C=C/c1ccccc1)C1OC(=O)c2ccccc21 (stereo not given)
TK-10 renal
  TGI: > 100 µM
HOP-92 NSCLC
  TGI: > 100 µM
OVCAR-3 ovarian
  TGI: > 100 µM
SNB-19 CNS
  TGI: > 100 µM
NCI-H226 lung
  TGI: > 100 µM
SNB-75 CNS
  TGI: > 100 µM
NCI-H23 lung
  TGI: > 100 µM
MOLT-4 leukemia
  TGI: > 100 µM
